Reference: patent publication US20260152533A1, “COMBINATION INHIBITORS FOR TREATING FIBROSIS” (Memorial Sloan-Kettering Cancer Center, priority 2021, published 2026)

Key:
[1] = system: pyruvate carboxylase (PC); test: Stable isotope tracing in NIH-3T3 cells (surrogate for PC activity); type: cell-based, mouse
Experimental: Cells were plated in six-well cell culture plates at a concentration aimed to reach 0.5-1×10^6 cells at the time of harvest. For quantification of relative metabolite abundance, cells were cultured with glutamine-free DMEM containing different concentrations of L-glutamine and supplemented with 10% dialyzed FBS and in some experiments were treated with TGFβ for 48 hours. For the [U-^13C]and [3,4-^13C]glucose tracing experiments, cells were cultured as above, and in the last 8 hours media was replaced with DMEM without D-glucose and L-glutamine supplemented with 2 mM or 0.2 mM L-glutamine and 10 mM [U-^13C]or [3,4-^13C]D-glucose (Cambridge Isotope Laboratories) and 10% dialyzed FBS. For the [U-^13C]and [1-^13C]lactate tracing experiments, cells were cultured in 2 or 0.2 mM L-glutamine, 10 or 1 mM D-glucose in the presence or absence of 10 mM sodium lactate, and in the last 8 hours media was replaced with DMEM without D-glucose and L-glutamine supplemented with 2 mM or 0.2 mM L-glutamine, 10 or 1 mM D-glucose, 10 mM [U-^13C]or [1-^13C]sodium lactate (Cambridge Isotope Laboratories) and 10% dialyzed FBS. For relative quantification of metabolites by gas chromatography-mass spectroscopy (GC-MS), cells were washed briefly with PBS, which was then fully aspirated and metabolism was quenched by immediately adding 1 mL of 80:20 methanol:water stored at −80° C. containing 20 μM deuterated 2-hydroxyglutarate (d5-2HG) as an internal standard. For stable isotope tracing experiments, metabolism was quenched without the PBS washing step by adding 1 mL of 80:20 methanol:water as above. After overnight incubation at −80° C., the resulting extracts were scraped on dry ice, transferred into a 1.5 mL centrifuge tube, and centrifuged at 20,000 g for 20 minutes at 4° C. The supernatants were collected in clean tubes and dried in a vacuum evaporator (Genevac EZ-2 Elite) for 2 hours.
For [U-^13C]glucose tracing into proteinogenic amino acids, cells were cultured in 10% Gln in the presence or absence of TGFβ for 48 hours. In the last 24 hours, the media including all treatments was replaced with DMEM without L-glutamine and D-glucose and supplemented with 0.2 mM L-glutamine and 10 mM [U-^13C]D-glucose (Cambridge Isotope Laboratories) and 10% dialyzed FBS. For [U-^13C]lactate tracing into ECM, confluent cells were cultured in 10% Gln in the presence of 10 mM [U-^13C]sodium lactate for 6 days. The media was replaced every other day. ECM was decellularized as described above. Cells and ECM were washed with PBS, and proteins were precipitated with methanol:chloroform:water (1:1:1). The interphase was washed with methanol, and the dried pellet was subjected to acid hydrolysis with 6 N hydrochloric acid (HCl) and incubation at 95° C. for 16 hours. Samples were cooled to room temperature and centrifuged at 20,000 g for 10 minutes. The cleared supernatant was dried in a vacuum evaporator (Genevac EZ-2 Elite) for 2 hours, and abundance of aspartate, glutamate/glutamine or hydroxyproline isotopologues was measured by GC-MS as described below.
GC-MS measurements were performed as described before^11. Ions used for quantification of metabolite levels were as follows: d5-2HG m/z 354; citrate m/z 465; alpha-ketoglutarate m/z 304; succinate m/z 247; fumarate m/z 245; malate m/z 335; aspartate m/z 232; hydroxyproline m/z 332; proline m/z 216; glutamate m/z 246; glutamine m/z 245; lactate m/z 219; pyruvate m/z 174. All peaks were manually inspected and verified relative to known spectra for each metabolite. Peak identification and integration were done with MassHunter software vB.09 (Agilent Technologies). For relative quantification of cell samples, integrated peak areas were normalized to the internal standard d5-2HG and to the packed cell volume of each sample. Absolute quantification of hydroxyproline in tumor acid hydrolysates was performed against a standard curve of commercial trans-4-hydroxy-L-proline (Sigma). […]

[2] = system: mammary fibroblasts (MFBs); test: Growth experiments, MFBs; type: cell-based, mouse; conditions: 20% Gln, TGFβ
From the text: NIH-3T3 cells were obtained from ATCC (CRL-1658); 293 T cells were obtained from ATCC (CRL-3216). PSCs were isolated from C57BL/6 mice by differential centrifugation as previously described^49 and their mesenchymal origin was validated by analyzing the expression of various mesenchymal and epithelial markers. MFBs were isolated from FVB/N mice by differential centrifugation as previously described^50. DB7 mouse breast cancer cells were obtained from Alexander Borowsky (University of California Davis Comprehensive Cancer Center, Sacramento, CA, USA) through an MTA to Ohio State University (OSU). KPC (Kras^LSL-G12D; Trp53^LSL-R172H; Pdx1-Cre) mouse PDAC cells were a gift from Scott Lowe (Memorial Sloan Kettering Cancer Center. (MSKCC)). […]
A total of 0.2×10^5 cells/well were plated in 24-well culture plates and media was changed and treatments started 5-6 hours later. Cell numbers at the start of treatment (day 0 “d 0”) and 1, 2 and 3 days later were counted using the Multisizer 4e (Beckman) and normalized to the cell number at d 0. In co-culture assays, a fraction of the cell population was analyzed by flow cytometry for GFP expression, and the rest counted with the Multisizer 4e. The number of KPC-GFP cells was determined by multiplying the fraction of GFP+ cells with the total number of cells.

Q: Which results are given for “TGFβ: transforming growth-factor beta; TGFβ-1 purchased from Peprotech”?
A: m+3 labelling of aspartate and glutamate/glutamine incorporated into cellular protein ([1]; 10% Gln, TGFβ 48 hours (FIG. 10I)): reduced; m+2 labelling of citrate, indicative of PDH activity ([1]; TGFβ 48 hours (FIG. 3E)): increased; m+3 and/or m+5 labelling of the metabolites analysed from [U-13C]Glc ([1]; high and low Gln medium, TGFβ 48 hours (FIG. 3E)): reduced; low-Gln increase of m+1 labelling of aspartate, malate and citrate from [3,4-13C]Glc (PC activity) ([1]; low Gln, TGFβ 48 hours (FIGS. 3G and 3H)): suppressed; cell proliferation [2]: unable to proliferate
